Measured values reported in patent publication US20040171823A1, “Polynucleotides and polypeptides associated with the NF-kappaB pathway” (priority 2003, published 2004).

Tested on: NF-κB activation pathway
Test: Real-time PCR (TaqMan/SYBR Green) of target gene mRNA in LPS-stimulated THP-1 cells with NF-κB pathway inhibitors
Assay type: cell-based, human
Details: BMS-345541 10 μM, dexamethasone 100 nM; for MGC20791 expression (mRNA): all time points examined, FIG. 5D; for BCL-6 expression (mRNA): FIG. 5C
Procedure: Poly (A)^+ mRNA was isolated from THP-1 cells that were either unstimulated, or stimulated with 100 ng/ml LPS for two hours in the presence and absence of BMS-205820 (2 uM) using the Fast Track isolation kit (Invitrogen, Carlsbad, Calif.) according to manufacturer's instructions. RNA quality and quantity were evaluated using UV spectrometry and capillary electrophoresis with the RNA 6000 Assay 10 (Agilent). First-strand cDNA was synthesized using the SuperScript™ First-Strand Synthesis System for RT-PCR (Invitrogen) according to manufacturer's instructions.
PCR reactions were performed in a total volume of 40 ul containing master mix (SYBR Green I dye, 50 mM Tris-Cl pH 8.3, 75 mM KCl, DMSO, Rox reference dye, 5 mM MgCl2, 2 mM dNTP, 1 unit Platinum Taq High Fidelity enzyme), 0.5 uM 15 each of forward and reverse gene-specific primers, and cDNA (8 ul of a 1:36 dilution of the first strand reaction mix). For tissue expression analyses, PCR reactions included 2 ul of cDNA derived from the Human Multiple Tissue cDNA panel I and Human Immune System MTC Panel (Clontech, Palo Alto, Calif.). The amplification program consisted of a 10 minute incubation at 95° C., followed by 40 cycles of incubations at 95° C. for 15 seconds, 60° C. for 1 minute. The amplification was followed by melting curve analysis at 60° C. to determine the specificity of the amplification reaction. The data were analyzed using the TaqMan 5700 software with the threshold value set to 0.5. The message levels of GAPDH were used to normalize the amounts of cDNA for each reaction.
PolyA+ mRNA was isolated from THP1 cells that were either unstimulated, stimulated with LPS for 2 hours, or stimulated with LPS for 2 hours in the presence of the peptide BMS-205820 (2 μM). In some experiments, THP-1 cells were stimulated with LPS in the presence of the glucocorticoid dexamethasone (100 nM), and the IKK-2 inhibitor, BMS-345541 (10 μM). RNA quality and quantity were evaluated using UV spectrometry and capillary electrophoresis with the RNA 6000 Assay by Agilent. Five-hundred nanograms of polyA RNA was used for first-strand cDNA synthesis using the SuperScript™ First-Strand Synthesis System for RT-PCR (Life Technologies) following the manufacturer's instructions with 250 ng of random hexamers.
PCR Reactions were performed in a total volume of 40 μl. The master mix contained SYBR Green I Dye, 50 mM Tris-HCl pH8.3, 75 mM KCl, DMSO, Rox reference dye, 5 mM MgCl2, 2 mM dNTP, Platinum Taq High Fidelity (1U/reaction), and 0.5 μM of each primer. The cDNA was diluted 1:36 from the synthesis reaction and eight microliters was used in each PCR reaction. For tissue distribution analyses, two microliters of cDNA from the Human Multiple Tissue and Human Immune System MTC cDNA panels were used as templates. The amplification program consisted of a 10 minute incubation at 95° C. followed by forty cycles of incubations at 95° C. for 15 seconds and 60° C. for 1 minute. […] A negative control without cDNA template was run to assess the overall specificity.
A relative value for the initial target concentration in each reaction was determined using the TaqMan 5700 software. The threshold value was set to 0.5 to obtain cycle threshold values that were used to assign relative message levels for each target. The message levels of GAPDH were determined for each cDNA sample and were used to normalize all other genes tested from the same cDNA sample.

[1] = THP-1 cells stimulated with LPS

| Compound | MGC20791 expression (mRNA) [1] | Cytokine-Inducible Kinase (CNK) expression (mRNA) (THP-1 cells stimulated with LPS, all time points, FIG. 5A) | BCL-2 Like 11 expression (mRNA) (THP-1 cells stimulated with LPS, each time point, FIG. 5B) | BCL-6 expression (mRNA) [1] | Stat1 expression (mRNA) (THP-1 cells, 8 hours post LPS stimulation, FIG. 5E) |
| --- | --- | --- | --- | --- | --- |
| Cc1ccc2nc(NCCN)c3ncc(C)n3c2c1 [BMS-345541] | significantly inhibited | potently inhibited | significantly inhibited expression at each time point below that detected in resting cells | significantly inhibited | significantly inhibited |
| C[C@@H]1C[C@H]2[C@@H]3CCC4=CC(=O)C=C[C@]4(C)[C@@]3(F)[C@@H](O)C[C@]2(C)[C@@]1(O)C(=O)CO [dexamethasone] | failed to inhibit |  |  | failed to inhibit |  |
